Structures are written as SMILES.

The target in one series is T1, human EAAT3 (Homo sapiens, UniProt P43005).
T1 construct: expressed in transfected cells
T1 sequence (P43005 1-524): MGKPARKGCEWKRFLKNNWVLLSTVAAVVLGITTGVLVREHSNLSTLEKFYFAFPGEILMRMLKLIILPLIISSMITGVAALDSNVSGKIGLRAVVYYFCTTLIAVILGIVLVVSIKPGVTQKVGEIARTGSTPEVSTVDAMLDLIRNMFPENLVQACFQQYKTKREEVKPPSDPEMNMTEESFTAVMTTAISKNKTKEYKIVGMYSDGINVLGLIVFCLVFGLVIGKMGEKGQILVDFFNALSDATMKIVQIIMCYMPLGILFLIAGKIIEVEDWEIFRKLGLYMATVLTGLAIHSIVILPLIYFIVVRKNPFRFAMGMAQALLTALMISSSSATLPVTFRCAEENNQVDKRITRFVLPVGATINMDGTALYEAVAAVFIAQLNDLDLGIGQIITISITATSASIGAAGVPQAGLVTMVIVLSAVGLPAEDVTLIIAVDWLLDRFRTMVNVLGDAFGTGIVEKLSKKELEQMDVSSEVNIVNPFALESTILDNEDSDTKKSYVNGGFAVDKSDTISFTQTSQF
The experiment in a line: FLIPR Membrane Potential (FMP) assay, antagonist potency at human EAAT3. Type of series: cell-based. The conditions noted are these: HEK-293 cells stably expressing human EAAT3; L-glutamate as agonist at EC80; antagonist applied 15 min before; Kb by Cheng-Prusoff from IC50. How it is done:
The FLIPR Membrane Potential (FMP) Assay
HEK-293 cells stably expressing human EAAT3 were seeded at 55 000 cells/well in growth medium (DMEM glutamate free (Invitrogen 11960-044), 1% Pen Strep (10 ml/l GIBCO BRL No 15140-023), 10% FCS non dialysed heat inactivated, 5 mg/l puromycin) in poly-D-lysine treated 96-well black microtiter plates with clear-bottom. After 24 h, the growth medium was removed and 100 μl/well of Krebs buffer (140 mM NaCl, 4.7 mM KCl, 2.5 mM CaCl2, 1.2 mM MgCl2, 11 mM HEPES, 10 mM D-glucose, pH=7.4) added. The cells were then loaded by adding 100 μl/well FMP assay dye (FLIPR Membrane Potential assay reagent, Molecular Devices). The 96-well plates were then incubated at 37° C. for 1 h. The depolarization of the cells will cause more dye to enter in the cells, where it will bind to intracellular proteins and lipids and cause an increase in the fluorescence signal. Antagonist potency at human EAAT3 was determined by using L-glutamate as agonist at a concentration which gives 80% of the maximum response. The antagonists were applied 15 min before the application of the agonist L-glutamate. The assays were performed at room temperature and measurements done by using a Fluorometric Imaging Plate Reader (FLIPR, Molecular Devices) and filter #2. Responses were measured as peak increase in fluorescence minus basal (i.e. fluorescence without addition of L-glutamate). Kb was determined using the Cheng-Prusoff equation Kb=IC50/[1+(A/EC50)], where IC50 is the concentration of the antagonist producing 50% inhibition, A is the concentration of the agonist against which the IC50 is being determined (at EC80) and EC50 is the concentration of the agonist producing 50% […].

The term Kb denotes the equilibrium dissociation constant of an antagonist, usually derived from a functional assay. Read a low Kb as higher antagonist affinity. For orientation: melting point means the temperature of the solid-liquid transition. `CC(C)c1nccn1-c1cc(C(=O)NC(C)(C)C)cc(-c2ccc(F)cc2)n1` [Example 2, N-tert-Butyl-2-(4-fluorophenyl)-6-(2-propan-2-yl-imidazol-1-yl)-pyridine-4-carboxamide] showed a melting point of 199 °C. The molecule further registered a Kb at human EAAT3 of 110 nM.

As to `CC(C)(C)NC(=O)c1cc(-c2ccc(F)cc2)nc(-n2ccnc2CO)c1` [Example 14, N-tert-Butyl-2-(4-fluorophenyl)-6-[2-(hydroxymethyl)-imidazol-1-yl]-pyridine-4-carboxamide], the melting point turned out to be 212 °C. Further, the Kb at human EAAT3 came out at 370 nM.

`CC(C)(C)c1nccn1-c1cc(C(=O)NC(C)(C)C(F)(F)F)cc(-c2ccc(Cl)cc2)n1` [Example 25, 2-(2-tert-Butylimidazol-1-yl)-6-(4-chlorophenyl)-N-(1,1,1-trifluoro-2-methylpropan-2-yl)-pyridine-4-carboxamide]: the melting point was found to be 225 °C. This molecule yielded a Kb on human EAAT3 of 260 nM.

The molecule `CC(C)(C)NC(=O)c1cc(-c2ccc(F)c(F)c2)nc(-n2ccnc2C(C)(C)C)c1` [Example 26, N-tert-Butyl-2-(2-tert-butyl-imidazol-1-yl)-6-(3,4-difluorophenyl)-pyridine-4-carboxamide] returned a melting point of 244 °C. Further, the Kb at human EAAT3 came out at 370 nM.

In turn, `Cc1ccc(-c2cc(C(=O)NC(C)(C)C)cc(-n3ccnc3C(C)(C)C)n2)cc1` [Example 27, N-tert-Butyl-2-(2-tert-butyl-imidazol-1-yl)-6-(4-methylphenyl)-pyridine-4-carboxamide] had a melting point of 232 °C. The molecule also registered a Kb on human EAAT3 of 110 nM.

In turn, `CC(C)(C)NC(=O)c1cc(-c2ccc(C3CC3)cc2)nc(-n2ccnc2C(C)(C)C)c1` [Example 28, N-tert-Butyl-2-(2-tert-butyl-imidazol-1-yl)-6-(4-cyclopropyl-phenyl)-pyridine-4-carboxamide] had a melting point of 226 °C. The molecule further yielded an antagonist equilibrium constant (Kb) at human EAAT3 of 670 nM.

With `COc1ccc(-c2cc(C(=O)NC(C)(C)C)cc(-n3ccnc3C(C)(C)C)n2)cc1` [Example 31, N-tert-Butyl-2-(2-tert-butyl-imidazol-1-yl)-6-(4-methoxy-phenyl)-pyridine-4-carboxamide], the melting point came to 235 °C. The molecule further came in with a Kb at human EAAT3 of 240 nM.

As for `CC(C)(C)NC(=O)c1cc(-c2ccc(C#N)cc2)nc(-n2ccnc2C(C)(C)C)c1` [Example 32, N-tert-Butyl-2-(2-tert-butyl-imidazol-1-yl)-6-(4-cyano-phenyl)-pyridine-4-carboxamide], the melting point turned out to be 245 °C. In addition, the Kb on human EAAT3 turned out to be 290 nM.

The molecule `CC(C)(O)c1nccn1-c1cc(C(=O)NC(C)(C)C(F)(F)F)cc(-c2ccc(Cl)cc2)n1` [Example 36, 2-(4-Chlorophenyl)-6-[2-(2-hydroxypropan-2-yl)-imidazol-1-yl]-N-(1,1,1-trifluoro-2-methylpropan-2-yl)-pyridine-4-carboxamide] registered a Kb at human EAAT3 of 78 nM.

With `CC(C)(C#N)NC(=O)c1cc(-c2ccc(Cl)cc2)nc(-n2ccnc2C(C)(C)C)c1` [Example 37, 2-(2-tert-Butylimidazol-1-yl)-6-(4-chlorophenyl)-N-(2-cyanopropan-2-yl)-pyridine-4-carboxamide], the Kb on human EAAT3 is 96 nM.

For `CCC(C)(C)NC(=O)c1cc(-c2ccc(F)cc2)nc(-n2ccnc2C(C)C)c1` [Example 39, 2-(4-Fluorophenyl)-N-(2-methylbutan-2-yl)-6-(2-propan-2-ylimidazol-1-yl)-pyridine-4-carboxamide], the Kb at human EAAT3 came out at 69 nM.

As to `CC(C)c1nccn1-c1cc(C(=O)NC(C)(C)C#N)cc(-c2ccc(Cl)cc2)n1` [Example 40, 2-(4-Chlorophenyl)-N-(2-cyanopropan-2-yl)-6-(2-propan-2-yl-imidazol-1-yl)-pyridine-4-carboxamide], the antagonist equilibrium constant (Kb) at human EAAT3 came to 360 nM.
